Results: US10238667B2, “Vitamin D receptor/SMAD genomic circuit gates fibrotic response” (Salk Institute for Biological Studies, priority 2013, dated 2019)

Tested on: primary rat HSCs
Experiment: Microarray expression profiling of TGFβ1 and TGFβ1+1,25(OH)2D3-treated HSCs
Format: cell-based
Conditions: 24 h
Excerpt: VDR Signaling Suppresses TGFβ-induced Pro-Fibrotic Genes. […] Euclidean clustering of both rows and columns using log2 transformed microarray expression data, n=2 per treatment group. […] Data represents the mean±SEM of at least three independent experiments performed in triplicate. Asterisks denote statistically significant differences (Student's unpaired t-test, *p<0.05, **p<0.01). HSCs were isolated from 10-week old male C57BL/6J mice and Wistar rats by in situ pronase, collagenase perfusion and single-step Histogenz gradient as previously reported (Hendriks et al., 1985; Knook et al., 1982). Isolated HSCs were cultured in DMEM (Mediatech) containing 20% FBS (Hyclone) on 6-well plates for 40 hours prior to end-point assays. Total RNA from primary rat or mouse HSCs was isolated using the RNeasy mini kit (Qiagen) according to standard protocols. RNA integrity and quality was assessed using the Agilent Bioanalyzer and prepared for hybridization to Illumina rat or mouse gene expression arrays according to standard Illumina protocols. Feature extraction was performed using the Illumina GenomeStudio software. Normalization and identification of differentially expressed genes from biological duplicates was performed using […] at http://sasquatch.ucsd.edu/vampire/.

[1] = TGFβ1 1 ng/ml ± 1,25(OH)2D3 100 nM

C=C1/C(=C\C=C2/CCC[C@]3(C)C([C@H](C)CCCC(C)(C)O)CC[C@@H]23)C[C@@H](O)C[C@@H]1O (stereo partly drawn) [1,25(OH)2D3, 1α,25 dihydroxyvitamin D3]
LOC499078 VitD + TGFbeta AVG signal (TGFβ1 1 ng/ml + 1,25(OH)2D3 100 nM, Control 3963.4, TGFβ 9788.1): 2325
Glipr1_predict VitD + TGFbeta AVG signal (TGFβ1 1 ng/ml + 1,25(OH)2D3 100 nM, Control 3986, TGFβ 9174): 1894
Sh3kbp1 VitD + TGFbeta AVG signal (TGFβ1 1 ng/ml + 1,25(OH)2D3 100 nM, Control 4057.3, TGFβ 7133.8): 1618
Ms4a7_predict VitD + TGFbeta AVG signal (TGFβ1 1 ng/ml + 1,25(OH)2D3 100 nM, Control 4402.2, TGFβ 10637): 1708
LOC310190 VitD + TGFbeta AVG signal (TGFβ1 1 ng/ml + 1,25(OH)2D3 100 nM, Control 4496.5, TGFβ 12465): 2594
Itgb2 VitD + TGF β Avg Signal (TGFβ1 1 ng/ml + 1,25(OH)2D3 100 nM, Control 4506.5, TGFβ 5580.6): 4858.4
Nucb2 VitD + TGFbeta AVG signal (TGFβ1 1 ng/ml + 1,25(OH)2D3 100 nM, Control 4712.3, TGFβ 10527): 2733
RT1-Ba VitD + TGFbeta AVG signal (TGFβ1 1 ng/ml + 1,25(OH)2D3 100 nM, Control 4721.8, TGFβ 13843): 3390
LOC312102 VitD + TGFbeta AVG signal (TGFβ1 1 ng/ml + 1,25(OH)2D3 100 nM, Control 5658, TGFβ 19362): 4469
Ptpro VitD + TGFbeta AVG signal (TGFβ1 1 ng/ml + 1,25(OH)2D3 100 nM, Control 5856.6, TGFβ 12798): 2551
Dcir3 VitD + TGFbeta AVG signal (TGFβ1 1 ng/ml + 1,25(OH)2D3 100 nM, Control 6230.8, TGFβ 11228): 1354
Oplah VitD + TGFbeta AVG signal (TGFβ1 1 ng/ml + 1,25(OH)2D3 100 nM, Control 6494.5, TGFβ 16466): 1922
Itgb1 VitD + TGF β Avg Signal (TGFβ1 1 ng/ml + 1,25(OH)2D3 100 nM, Control 8050.9, TGFβ 10104.2): 7987.9
Mmp14 VitD + TGF β Avg Signal (TGFβ1 1 ng/ml + 1,25(OH)2D3 100 nM, Control 8370.4, TGFβ 15560.3): 14980.5
Timp1 VitD + TGF β Avg Signal (TGFβ1 1 ng/ml + 1,25(OH)2D3 100 nM, Control 10124.0, TGFβ 13471.4): 9101.3
Ctgf VitD + TGF β Avg Signal (TGFβ1 1 ng/ml + 1,25(OH)2D3 100 nM, Control 10532.3, TGFβ 20216.0): 9730.1
Col1a2 VitD + TGF β Avg Signal (TGFβ1 1 ng/ml + 1,25(OH)2D3 100 nM, Control 10691.1, TGFβ 24123.0): 9593.3
Ms4a6b VitD + TGFbeta AVG signal (TGFβ1 1 ng/ml + 1,25(OH)2D3 100 nM, Control 12345, TGFβ 21779): 5158
Ctsc VitD + TGFbeta AVG signal (TGFβ1 1 ng/ml + 1,25(OH)2D3 100 nM, Control 16420, TGFβ 32328): 6319
Bmp2 TGFb/TGFB + VitD3 [1]: 5.3 NM_017178.1 Rattus norvegicus bone
Cacnb3 TGFb/TGFB + VitD3 [1]: 6.0 NM_012828.1 Rattus norvegicus calcium channel
Ccl12_predicte TGFb/TGFB + VitD3 [1]: 5.5 XM_213425.2 PREDICTED: Rattus norvegicus
Ccr5 TGFb/TGFB + VitD3 [1]: 12.9 NM_053960.2 Rattus norvegicus chemokine (C-
Cdh1 TGFb/TGFB + VitD3 [1]: 4.4 NM_031334.1 Rattus norvegicus cadherin 1
Chst1_predict TGFb/TGFB + VitD3 [1]: 12.7 XM_575178.1 PREDICTED: Rattus norvegicus
Ctsc TGFb/TGFB + VitD3 [1]: 5.1 NM_017097.1 Rattus norvegicus cathepsin C
Cysltr1 TGFb/TGFB + VitD3 [1]: 4.4 NM_053641.1 Rattus norvegicus cysteinyl
Dcir2 TGFb/TGFB + VitD3 [1]: 4.6 XM_579146.1 PREDICTED: Rattus norvegicus
Dcir3 TGFb/TGFB + VitD3 [1]: 8.3 XM_579150.1 PREDICTED: Rattus norvegicus
Dsipi TGFb/TGFB + VitD3 [1]: 4.0 NM_031345.1 Rattus norvegicus delta sleep
Emr1 TGFb/TGFB + VitD3 [1]: 5.9 XM_579174.1 PREDICTED: Rattus norvegicus
Fchsd2_predic TGFb/TGFB + VitD3 [1]: 4.9 XM_218965.3 PREDICTED: Rattus norvegicus
Gas7 TGFb/TGFB + VitD3 [1]: 4.9 NM_053484.1 Rattus norvegicus growth arrest
Glipr1_predict TGFb/TGFB + VitD3 [1]: 4.8 XM_576223.1 PREDICTED: Rattus norvegicus GLI
Hod TGFb/TGFB + VitD3 [1]: 5.1 NM_133621.2 Rattus norvegicus homeobox only
LOC304349 TGFb/TGFB + VitD3 [1]: 7.1 XM_221990.3 PREDICTED: Rattus norvegicus
LOC305269 TGFb/TGFB + VitD3 [1]: 4.0 XM_223309.3 PREDICTED: Rattus norvegicus
LOC310190 TGFb/TGFB + VitD3 [1]: 4.8 XM_226886.3 PREDICTED: Rattus norvegicus
LOC312102 TGFb/TGFB + VitD3 [1]: 4.3 XM_231461.3 PREDICTED: Rattus norvegicus
LOC361699 TGFb/TGFB + VitD3 [1]: 3.8 XM_341982.2 PREDICTED: Rattus norvegicus
LOC366205 TGFb/TGFB + VitD3 [1]: 6.6 XM_345441.2 PREDICTED: Rattus norvegicus
LOC366608 TGFb/TGFB + VitD3 [1]: 4.4 XM_345665.2 PREDICTED: Rattus norvegicus
LOC497796 TGFb/TGFB + VitD3 [1]: 5.1 XM_579296.1 PREDICTED: Rattus norvegicus
LOC498741 TGFb/TGFB + VitD3 [1]: 6.1 XM_574019.1 PREDICTED: Rattus norvegicus
LOC498751 TGFb/TGFB + VitD3 [1]: 5.1 XM_574030.1 PREDICTED: Rattus norvegicus
LOC499078 TGFb/TGFB + VitD3 [1]: 4.2 XM_574362.1 PREDICTED: Rattus norvegicus
LOC499100 TGFb/TGFB + VitD3 [1]: 3.9 XM_218456.3 PREDICTED: Rattus norvegicus
LOC499272 TGFb/TGFB + VitD3 [1]: 4.4 XM_579937.1 PREDICTED: Rattus norvegicus
LOC499356 TGFb/TGFB + VitD3 [1]: 11.0 XM_574669.1 PREDICTED: Rattus norvegicus
LOC501570 TGFb/TGFB + VitD3 [1]: 4.6 XM_576974.1 PREDICTED: Rattus norvegicus
LOC502904 TGFb/TGFB + VitD3 [1]: 6.7 XM_578406.1 PREDICTED: Rattus norvegicus
LOC502907 TGFb/TGFB + VitD3 [1]: 9.6 XM_578409.1 PREDICTED: Rattus norvegicus
Ly49si1 TGFb/TGFB + VitD3 [1]: 4.6 XM_579297.1 PREDICTED: Rattus norvegicus
Ly49si2 TGFb/TGFB + VitD3 [1]: 4.6 XM_579298.1 PREDICTED: Rattus norvegicus
Ms4a4a_predi TGFb/TGFB + VitD3 [1]: 17.7 XM_342027.1 PREDICTED: Rattus norvegicus
Ms4a6a_predi TGFb/TGFB + VitD3 [1]: 4.5 XM_215145.3 PREDICTED: Rattus norvegicus
Ms4a6b TGFb/TGFB + VitD3 [1]: 4.2 NM_00100697 Rattus norvegicus membrane-
Ms4a7_predict TGFb/TGFB + VitD3 [1]: 6.2 XM_215200.2 PREDICTED: Rattus norvegicus
Nucb2 TGFb/TGFB + VitD3 [1]: 3.9 NM_021663.2 Rattus norvegicus nucleobindin 2
Oplah TGFb/TGFB + VitD3 [1]: 8.6 NM_053904.1 Rattus norvegicus 5-oxoprolinase
Pcsk1 TGFb/TGFB + VitD3 [1]: 7.4 NM_017091.1 Rattus norvegicus proprotein
Pirb TGFb/TGFB + VitD3 [1]: 5.3 NM_031713.1 Rattus norvegicus paired-Ig-like
Ptprc TGFb/TGFB + VitD3 [1]: 4.2 NM_138507.1 Rattus norvegicus protein tyrosine
Ptpro TGFb/TGFB + VitD3 [1]: 5.0 NM_017336.1 Rattus norvegicus protein tyrosine
RT1-Ba TGFb/TGFB + VitD3 [1]: 4.1 XM_579226.1 PREDICTED: Rattus norvegicus
Sh3kbp1 TGFb/TGFB + VitD3 [1]: 4.4 NM_053360.2 Rattus norvegicus SH3-domain
Slamf9_predic TGFb/TGFB + VitD3 [1]: 4.2 XM_213932.2 PREDICTED: Rattus norvegicus
Stab1_predict TGFb/TGFB + VitD3 [1]: 5.6 XM_214279.3 PREDICTED: Rattus norvegicus
Tmem26_pred TGFb/TGFB + VitD3 [1]: 3.8 XM_228108.3 PREDICTED: Rattus norvegicus
